This passage reports viability results from publication PMC11995724, “Antibiotic target discovery by integrated phenotypic and activity-based profiling of electrophilic fragments” (Cell chemical biology, 2025).

This data set in a line: in vitro. As to conditions: human, hek293t cells.
For the molecule `O=C1C=CC(=O)N1CCCCO` [10-K07, 1-(4-hydroxybutyl)-2,5-dihydro-1H-pyrrole-2,5-dione], the viability (usually a read-out of living cells in per cent, often relative to untreated cells) at 48 h, 25 µM turned out to be 39.9%.

Turning to `CCOc1ccc(-n2c(C)cc(C(=O)CCl)c2C)cc1` [10-K08, 2-chloro-1-[1-(4-ethoxyphenyl)-2,5-dimethyl-1H-pyrrol-3-yl]ethan-1-one], the viability at 48 h, 25 µM turned out to be 0.112%.

`O=C(CCl)C1CC1(Cl)Cl` (stereo not shown) [10-K09, 2-chloro-1-(2,2-dichlorocyclopropyl)ethan-1-one]: the viability at 48 h, 25 µM amounted to 1.74%.

Consider `COc1ccc(Cl)cc1N1C(=O)C=CC1=O` [10-K10, 1-(5-chloro-2-methoxyphenyl)-2,5-dihydro-1H-pyrrole-2,5-dione], for which the viability at 48 h, 25 µM came to 81.3%.

For the molecule `O=C(CCl)c1sccc1Cl` [10-K11, 2-chloro-1-(3-chlorothiophen-2-yl)ethan-1-one], the viability at 48 h, 25 µM is 17%.

For `O=C1C=CC(=O)N1c1ccccc1Sc1ccccc1` [10-K12, 1-[2-(phenylsulfanyl)phenyl]-2,5-dihydro-1H-pyrrole-2,5-dione], the viability at 48 h, 25 µM is 63%.

Take `Cc1noc(C)c1C(=O)CCl` [10-K13, 2-chloro-1-(3,5-dimethyl-1,2-oxazol-4-yl)ethan-1-one]: the viability at 48 h, 25 µM was 56.9%.

As for `Cc1cc(C(=O)CCl)c(C)n1-c1ccc2c(c1)OCO2` [10-K14, 1-[1-(1,3-dioxaindan-5-yl)-2,5-dimethyl-1H-pyrrol-3-yl]-2-chloroethan-1-one], the viability at 48 h, 25 µM stood at 22.4%.

`O=C(CCl)Cc1c(Cl)cccc1Cl` [10-K15, 1-chloro-3-(2,6-dichlorophenyl)propan-2-one]: the viability at 48 h, 25 µM is 23.3%.

Regarding `Cc1cc(C(=O)CCl)c(C)s1` [10-K16, 2-chloro-1-(2,5-dimethylthiophen-3-yl)ethan-1-one], the viability at 48 h, 25 µM was determined as 0.769%.

Consider `O=C(CCl)Cc1cccc(F)c1F` [10-K17, 1-chloro-3-(2,3-difluorophenyl)propan-2-one], for which the viability at 48 h, 25 µM stood at 33.7%.

In the case of `Cc1ccc2nc(-c3ccc(N4C(=O)C=CC4=O)cc3)sc2c1` [10-K18, 1-[4-(6-methyl-1,3-benzothiazol-2-yl)phenyl]-2,5-dihydro-1H-pyrrole-2,5-dione], the viability at 48 h, 25 µM came out at 107%.

Consider `O=C(CCl)C1(F)CCCCC1` [10-K19, 2-chloro-1-(1-fluorocyclohexyl)ethan-1-one], for which the viability at 48 h, 25 µM came to 97.5%.

Take `O=CN1CCc2cc(C(=O)CCl)ccc21` [10-K20, 5-(2-chloroacetyl)-2,3-dihydro-1H-indole-1-carbaldehyde]: the viability at 48 h, 25 µM was determined as 89.7%.

Regarding `COC(=O)c1c(C(=O)CCl)c(C)n(C(C)C)c1C` [10-K21, methyl 4-(2-chloroacetyl)-2,5-dimethyl-1-(propan-2-yl)-1H-pyrrole-3-carboxylate], the viability at 48 h, 25 µM is 71.2%.

In the case of `O=C1NC(=O)c2cc(NC(=O)N3CCSSCC3)ccc21` [10-K22, N-(1,3-dioxo-2,3-dihydro-1H-isoindol-5-yl)-1,2,5-dithiazepane-5-carboxamide], the viability at 48 h, 25 µM amounted to 98.8%.

Take `Cc1cc(C(=O)CCl)c(C)n1CCC(C)C` [10-L03, 2-chloro-1-[2,5-dimethyl-1-(3-methylbutyl)-1H-pyrrol-3-yl]ethan-1-one]: the viability at 48 h, 25 µM turned out to be 76.2%.

On to `COc1cc(OC)c(C(=O)CCl)c(OC)c1` [10-L04, 2-chloro-1-(2,4,6-trimethoxyphenyl)ethan-1-one], for which the viability at 48 h, 25 µM is 80.7%.

As to `COc1ccc2[nH]c(C)c(C(=O)CCl)c2c1` [10-L05, 2-chloro-1-(5-methoxy-2-methyl-1H-indol-3-yl)ethan-1-one], the viability at 48 h, 25 µM worked out at 14.8%.

As for `NC(=O)c1csc(C(=O)CCl)c1` [10-L06, 5-(2-chloroacetyl)thiophene-3-carboxamide], the viability at 48 h, 25 µM was 66.2%.

On to `Cc1cccc(-n2cc(C(=O)CCl)nn2)c1` [10-L07], for which the viability at 48 h, 25 µM was 81.5%.

As to `O=C(CCl)c1cscn1` [10-L08, 2-chloro-1-(1,3-thiazol-4-yl)ethan-1-one], the viability at 48 h, 25 µM was 59.2%.
